Measured values published in patent US10813929B2, “Treating cancer with ATR inhibitors” (VERTEX PHARMACEUTICALS INCORPORATED, priority 2011, dated 2020).

Legend:
[1] = system: primary adenocarcinoma NSCLC xenograft; test: Primary adenocarcinoma NSCLC xenograft model; type: in vivo, SCID mice; settings: VE-822 60 mg/kg po qd4 with cisplatin 1 or 3 mg/kg ip q7d; FIG. 20
Method: Tumor tissue was excised from a patient with a poorly differentiated adenocarcinoma. This tumor tissue was implanted subcutaneously in the flank of a SCID mouse and passaged twice before compound testing. For compound testing passage-two tumor tissue was implanted subcutaneously in the flank of SCID mice and tumors grown to a volume of about 200 mm^3 Cisplatin was dosed alone at either 1 or 3 mg/kg ip, once per week (ip, q7d, on day 2 of each week) for two weeks. VE-822 was dosed as a solution alone at 60 mg/kg po on 4 consecutive days per weekly cycle (qd4, dosed on days 1, 2, 3 and 4 each week). Two combination groups received cisplatin at 1 or 3 mg/kg plus VE-822 at 60 mg/kg po on the same schedule as the single agent group. A control group received vehicle alone (10% Vitamin E TPGS in water, po qd4). All drug treatment was stopped on Day 28. Vehicle, cisplatin (1 mg/kg) and VE-822 (60 mg/kg) groups were sacrificed and the remainder monitored for a further 40 days to assess tumor re-growth.
Data are mean±sem, n=9-10. […]

[2] = system: PSN-1 pancreatic cancer xenograft; test: PSN-1 pancreatic cancer xenograft model with ionizing radiation; type: in vivo; settings: PSN-1 xenograft; FIGS. 14 and 15
[3] = system: phosphorylation of Chk1 (Ser 345); test: Western blot analysis of Chk1 inhibition; type: cell-based; settings: 1 μM VE-821; after gemcitabine (100 nM), radiation (6 Gy) or both; FIG. 1 panel A
Method: Cells were treated with 100 nM gemcitabine for 1 h, 1 μM VE-821 was added 1 h later and cells were irradiated (6 Gy) 1 h after that. Drugs were left for the duration of the experiment and cells were lysed at 2 h post-irradiation and subjected to Western blot analysis. MiaPaCa-2 and PSN-1 cells were exposed to gemcitabine and/or 1 μM VE-821 drug 1 h prior to irradiation with a single dose of 6 Gy. Cells were lysed in RIPA buffer 2 h post-irradiation and subjected to SDS-PAGE electrophoresis and immunoblotting. Chemoluminescence (SuperSignal, Millipore) and film exposure was used to detect antibody binding. Exposed film was digitized and figures were assembled using Microsoft PowerPoint.

SMILES	antitumor effects of cisplatin (tumor volume) [1]	antitumor effects of ionizing radiation (tumor volume over time) [2]	phosphorylation of Chk1 (Ser 345) [3]
CNCc1ccc(-c2cc(-c3nc(-c4ccc(S(=O)(=O)C(C)C)cc4)cnc3N)on2)cc1 [VE-822]	enhances the antitumor effects of cisplatin	enhances the antitumor effects of ionizing radiation	
CS(=O)(=O)c1ccc(-c2cnc(N)c(C(=O)Nc3ccccc3)n2)cc1 [VE-821]			inhibits phosphorylation of Chk1 (Ser 345)
